Data taken from ChEMBL document CHEMBL1158944, “Chemistry of Sponges, XII. A New Dihydric Phenol from the Sponge Fasciospongia sp” (J Nat Prod, 1991).
Calls of active or inactive are those of the source. The calls are words filed in the database; no cut-off is given here.

Assays:
Bacillus subtilis = test: Antimicrobial activity against Bacillus subtilis at 100 ug/ml; assay type: functional, organism-based
Staphylococcus aureus = test: Antimicrobial activity against Staphylococcus aureus at 100 ug/ml; assay type: functional, organism-based

COc1cc(C/C=C(/C)CC/C=C(\C)CC/C=C(\C)CCC=C(C)C)cc(O)c1O
Activity (Bacillus subtilis): Active
Activity (Staphylococcus aureus): Active
